From PubChem BioAssay AID330 (DTP/NCI, 2004)
Where “and” joins values, the source holds several entries; their conditions need not be identical. Identical values can stand only once. Toxic doses and inconclusive results are not listed. How the source made its calls: active means survival T/C of 150% or more; inactive means T/C below 125% in these data.

System: P388 leukemia ip, CD2F1 mice, survival T/C
Experiment: NCI In Vivo Anticancer Drug Screen. Data for tumor model P388 Leukemia (intraperitoneal) in CD2F1 (CDF1) mice
Conditions: endpoint: median survival time, higher = longer survival
Procedure, shortened: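 Mice carrying the transplanted tumor received test compound or vehicle. Survival was recorded in each group, and the value is the treated-group measurement divided by that of the vehicle-treated control group.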

[1] = dose: 50.0 mg/kg/injection, schedule: Q01DX009 (ip), vehicle: saline
[2] = dose: 100.0 mg/kg/injection, schedule: Q01DX009 (ip), vehicle: saline
[3] = dose: 200.0 mg/kg/injection, schedule: Q01DX009 (ip), vehicle: saline
[4] = dose: 25.0 mg/kg/injection, schedule: Q01DX005 (ip), vehicle: saline
[5] = dose: 50.0 mg/kg/injection, schedule: Q01DX005 (ip), vehicle: saline
[6] = dose: 100.0 mg/kg/injection, schedule: Q01DX001 (ip), vehicle: saline
[7] = dose: 50.0 mg/kg/injection, schedule: Q01DX009 (ip), vehicle: saline with Tween-80
[8] = dose: 100.0 mg/kg/injection, schedule: Q01DX009 (ip), vehicle: saline with Tween-80
[9] = dose: 200.0 mg/kg/injection, schedule: Q01DX009 (ip), vehicle: saline with Tween-80
[10] = dose: 100.0 mg/kg/injection, schedule: Q01DX005 (ip), vehicle: saline
[11] = dose: 50.0 mg/kg/injection, schedule: Q01DX005 (ip), vehicle: Klucel (hydroxypropylcellulose) (HPC)
[12] = dose: 100.0 mg/kg/injection, schedule: Q01DX005 (ip), vehicle: Klucel (hydroxypropylcellulose) (HPC)

Measured: T/C

CNC(=S)N/N=C\C(C)=N/Nc1ccc([N+](=O)[O-])cc1
inactive: [1] 94 % of control | [2] 93 % of control | [3] 87 % of control

O=C(Nc1ccc(Cl)c(Cl)c1)OCc1ccco1
inactive: dose: 60.0 mg/kg/injection, schedule: Q01DX005 (ip), vehicle: Klucel (hydroxypropylcellulose) (HPC) 105 % of control | dose: 120.0 mg/kg/injection, schedule: Q01DX005 (ip), vehicle: Klucel (hydroxypropylcellulose) (HPC) 105 % of control

CCN(CC)CCNC(=O)c1noc2cc([N+](=O)[O-])ccc12
inactive: dose: 12.5 mg/kg/injection, schedule: Q01DX005 (ip), vehicle: saline 109 % of control | [4] 115 % of control | [5] 103 % of control and 97 % of control

CCc1cc(C=C2C(=O)c3ccccc3C2=O)cc(CC)c1O
inactive: dose: 100.0 mg/kg/injection, schedule: Q04DX002 (ip), vehicle: saline 99 % of control | dose: 200.0 mg/kg/injection, schedule: Q04DX002 (ip), vehicle: saline 99 % of control | dose: 400.0 mg/kg/injection, schedule: Q04DX002 (ip), vehicle: saline 99 % of control

COc1ccc(-c2nc(C)cc3cc(OC)c(OC)cc23)cc1OC
inactive: dose: 12.5 mg/kg/injection, schedule: Q01DX009 (ip), vehicle: water 98 % of control | dose: 25.0 mg/kg/injection, schedule: Q01DX009 (ip), vehicle: water 100 % of control | dose: 50.0 mg/kg/injection, schedule: Q01DX009 (ip), vehicle: water 100 % of control | dose: 100.0 mg/kg/injection, schedule: Q01DX009 (ip), vehicle: water 100 % of control

NC(=S)c1ccccc1[N+](=O)[O-]
inactive: dose: 25.0 mg/kg/injection, schedule: Q01DX001 (ip), vehicle: saline 104 % of control | dose: 25.0 mg/kg/injection, schedule: Q01DX001 (ip), vehicle: suspension in saline 101 % of control | dose: 50.0 mg/kg/injection, schedule: Q01DX001 (ip), vehicle: saline 104 % of control | dose: 50.0 mg/kg/injection, schedule: Q01DX001 (ip), vehicle: suspension in saline 100 % of control | [6] 101 % of control and 104 % of control | dose: 100.0 mg/kg/injection, schedule: Q01DX001 (ip), vehicle: suspension in saline 102 % of control | dose: 200.0 mg/kg/injection, schedule: Q01DX001 (ip), vehicle: suspension in saline 101 % of control

CC/C(=N\NS(=O)(=O)c1ccc(C)cc1)c1ccc(OC)c(C)c1
inactive: [7] 105 % of control | [1] 104 % of control | [8] 97 % of control | [9] 99 % of control | [3] 96 % of control

CNc1ccc(OC)cc1
inactive: dose: 100.0 mg/kg/injection, schedule: Q04DX003 (ip), vehicle: other 100 % of control | dose: 200.0 mg/kg/injection, schedule: Q04DX003 (ip), vehicle: other 90 % of control | dose: 400.0 mg/kg/injection, schedule: Q04DX003 (ip), vehicle: other 109 % of control

C[C@@H]1CC[C@]2(C)CC[C@]3(C)C(=CC[C@@H]4[C@@]5(C)CC[C@H](O)C(C)(C)[C@@H]5CC[C@]43C)[C@@H]2[C@H]1C(=O)O
inactive: dose: 0.5 mg/kg/injection, schedule: Q01DX005 (ip), vehicle: DMSO 99 % of control | dose: 1.0 mg/kg/injection, schedule: Q01DX005 (ip), vehicle: DMSO 101 % of control | dose: 2.0 mg/kg/injection, schedule: Q01DX005 (ip), vehicle: DMSO 100 % of control | dose: 4.0 mg/kg/injection, schedule: Q01DX005 (ip), vehicle: DMSO 100 % of control and 108 % of control | dose: 8.0 mg/kg/injection, schedule: Q01DX005 (ip), vehicle: DMSO 98 % of control

COc1ccc2c(c1)N=C(NNC1=Nc3cc(OC)ccc3SC1)CS2
inactive: dose: 15.0 mg/kg/injection, schedule: Q01DX005 (ip), vehicle: saline with Tween-80 113 % of control and 97 % of control | dose: 30.0 mg/kg/injection, schedule: Q01DX005 (ip), vehicle: saline with Tween-80 101 % of control and 102 % of control | dose: 60.0 mg/kg/injection, schedule: Q01DX005 (ip), vehicle: saline with Tween-80 100 % of control and 91 % of control

OC(c1cc(-c2ccccc2)nc2ccc(Cl)cc12)C1CCCCN1 (configuration not stated)
inactive: dose: 50.0 mg/kg/injection, schedule: Q01DX005 (ip), vehicle: saline with Tween-80 97 % of control | dose: 100.0 mg/kg/injection, schedule: Q01DX005 (ip), vehicle: saline with Tween-80 90 % of control | dose: 200.0 mg/kg/injection, schedule: Q01DX005 (ip), vehicle: saline with Tween-80 99 % of control

CN(C)c1ccc(/C=C/C=C2C(=O)NC(=S)NC2=O)cc1
inactive: dose: 100.0 mg/kg/injection, schedule: Q04DX002 (ip), vehicle: Klucel (hydroxypropylcellulose) (HPC) 89 % of control | dose: 200.0 mg/kg/injection, schedule: Q04DX002 (ip), vehicle: Klucel (hydroxypropylcellulose) (HPC) 92 % of control | dose: 400.0 mg/kg/injection, schedule: Q04DX002 (ip), vehicle: Klucel (hydroxypropylcellulose) (HPC) 87 % of control

CC(C)(C)OC(=O)C(C(=O)OC(C)(C)C)=C1C(=O)OCC1(C)C
inactive: dose: 100.0 mg/kg/injection, schedule: Q04DX003 (ip), vehicle: saline 95 % of control | dose: 200.0 mg/kg/injection, schedule: Q04DX003 (ip), vehicle: saline 103 % of control | dose: 400.0 mg/kg/injection, schedule: Q04DX003 (ip), vehicle: saline 98 % of control

COc1ccc(CSC(=S)Nc2ccc(Cl)c(C)c2)cc1
inactive: dose: 50.0 mg/kg/injection, schedule: Q01DX009 (ip), vehicle: suspension in saline 111 % of control | dose: 100.0 mg/kg/injection, schedule: Q01DX009 (ip), vehicle: suspension in saline 109 % of control | dose: 200.0 mg/kg/injection, schedule: Q01DX009 (ip), vehicle: suspension in saline 106 % of control

N#CC1(OC2OC(CO)C(O)C(O)C2O)C=CC(O)C1O (configuration not stated)
inactive: [4] 106 % of control | [5] 120 % of control | [10] 111 % of control and 97 % of control | dose: 200.0 mg/kg/injection, schedule: Q01DX005 (ip), vehicle: saline 121 % of control and 97 % of control | dose: 400.0 mg/kg/injection, schedule: Q01DX005 (ip), vehicle: saline 102 % of control

CC(C)CC1NC(=O)C(CC(C)C)N(CO)C1=O (configuration not stated)
inactive: [11] 97 % of control | [12] 99 % of control | dose: 200.0 mg/kg/injection, schedule: Q01DX005 (ip), vehicle: Klucel (hydroxypropylcellulose) (HPC) 95 % of control

CC(=O)O[C@@H]1[C@@H](O)C2=C3[C@]4(C)[C@@H]1C(C)(C)C(=O)C[C@@H]4[C@]3(O)[C@H](OC(C)=O)[C@@]1(C[C@@H]1C)C2=O
inactive: dose: 25.0 mg/kg/injection, schedule: Q01DX009 (ip), vehicle: other 118 % of control | dose: 25.0 mg/kg/injection, schedule: Q01DX009 (ip), vehicle: saline with Tween-80 115 % of control

CS(C)=Nc1ccc(Cl)cc1
inactive: [6] 109 % of control

C=C1SC(=Nc2cccc(OC)c2)N(c2nc(Cl)nc(Cl)n2)C1(C)C
inactive: [1] 99 % of control | [2] 102 % of control | [3] 98 % of control

O=CNCO
inactive: dose: 250.0 mg/kg/injection, schedule: Q01DX005 (ip), vehicle: water 100 % of control | dose: 500.0 mg/kg/injection, schedule: Q01DX005 (ip), vehicle: water 101 % of control and 103 % of control | dose: 1000.0 mg/kg/injection, schedule: Q01DX005 (ip), vehicle: water 108 % of control and 110 % of control | dose: 2000.0 mg/kg/injection, schedule: Q01DX005 (ip), vehicle: water 114 % of control

COc1cc2c[n+](C)c3c4cc(OC)c(OC)cc4c(OC)cc3c2cc1OC
inactive: dose: 12.5 mg/kg/injection, schedule: Q01DX005 (ip), vehicle: Klucel (hydroxypropylcellulose) (HPC) 118 % of control | [4] 109 % of control | [11] 112 % of control | [12] 118 % of control | [10] 120 % of control

N=C(N)SCc1ccc(CSC(=N)N)s1
inactive: dose: 7.5 mg/kg/injection, schedule: Q01DX009 (ip), vehicle: saline 107 % of control | dose: 15.0 mg/kg/injection, schedule: Q01DX009 (ip), vehicle: saline 101 % of control | dose: 30.0 mg/kg/injection, schedule: Q01DX009 (ip), vehicle: saline 117 % of control

CNC(=O)Oc1ncccc1[N+](=O)[O-]
inactive: [1] 98 % of control and 117 % of control | [2] 107 % of control and 119 % of control | [3] 98 % of control and 88 % of control

Nc1ccc2c(n1)NCC/C2=N\Nc1ccccc1
inactive: [7] 115 % of control | [8] 96 % of control | [9] 100 % of control
